We go through 15 compounds from paper PMC6261661 (ACS chemical neuroscience, 2018).

Values joined by “and” are separate entries in the source; they are usually repeats but may differ in a detail not shown here. Equal entries are not always repeated. “Also recorded” adds a separate entry of the source. Where two headings read alike, the source gives them in different places. Square brackets hold non-standard residues; d marks the D form. Peptide text beside a SMILES is read from it. Bip = N[C@@H](Cc1ccc(-c2ccccc2)cc1)C(=O)O; dBip = N[C@H](Cc1ccc(-c2ccccc2)cc1)C(=O)O; dPhe(4-I) = N[C@H](Cc1ccc(I)cc1)C(=O)O; 1Nal = N[C@@H](Cc1cccc2ccccc12)C(=O)O; d2Nal = N[C@H](Cc1ccc2ccccc2c1)C(=O)O; Bta = N[C@@H](Cc1csc2ccccc12)C(=O)O; Tic = O=C(O)[C@@H]1Cc2ccccc2CN1; 2Thi = N[C@@H](Cc1cccs1)C(=O)O

Experiment [1] concerns the target T1, mMC3R (Mus musculus, UniProt P33033). In words: cell-based. The format is cell-based.
For experiment [2], the target named is T1, mMC3R. Nature of the experiment: Antagonist Schild analysis against agonist MTII at mMC3R. The format is cell-based. Particulars: for mMC3R pharmacology class printed in Fold Diff column (Ant, SA): Ant = antagonist, SA = some stimulatory activity at 100 µM.
For experiment [3], the target named is T2, mMC4R (Mus musculus, UniProt P56450). Nature of the experiment: CRE/β-galactosidase reporter gene bioassay, agonist activity at mMC4R. The format is cell-based. The settings on record: ligand at 100 μM, compared to maximal response generated by α-MSH.
Experiment [4] has as its target T3, mMC5R (Mus musculus, UniProt P41149). Nature of the experiment: CRE/β-galactosidase reporter gene bioassay, agonist activity at mMC5R. The settings on record: for mMC5R pharmacology in words: comparisons are to reference peptide 1; for mMC5R Fold Diff.: fold difference in EC50 vs peptide 1, negative prefix = more potent than 1; for mMC5R fold less potent than peptide 1: less potent than 1. The format is cell-based.

The target in experiment [5] is T2, mMC4R. In words: Antagonist Schild analysis against agonist MTII at mMC4R. The format is cell-based. Particulars: for mMC4R pharmacology class printed in Fold Diff. column (Ant, SA): Ant = antagonist, SA = some stimulatory activity at 100 µM.
The target in experiment [6] is T4, mMC1R (Mus musculus, UniProt Q01727). Nature of the experiment: CRE/β-galactosidase reporter gene bioassay, agonist activity at mMC1R. The format is cell-based. The settings on record: for mMC1R Fold Diff: fold difference in EC50 vs peptide 1, negative prefix = more potent than 1; for EC50: mMC1R EC50, agonist, HEK-293 cells stably expressing receptor, ±SEM; for mMC1R pharmacology in words: comparisons are to reference peptide 1.

Experiment [7] deals with T4, mMC1R. Particulars: read-out: mMC1R EC50, reference peptide from the literature, cited from earlier work.
Experiment [8] concerns the target T3, mMC5R. The settings on record: read-out: mMC5R EC50, reference peptide from the literature, cited from earlier work.
For experiment [9], the target named is T1, mMC3R. Particulars: read-out: mMC3R EC50, reference peptide from the literature, cited from earlier work.
Experiment [10] has as its target T2, mMC4R. The settings on record: read-out: mMC4R EC50; reference peptide from the literature; ref [31]; cited from earlier work.
Setting [11] is: ligand at 100 μM, compared to maximal response generated by α-MSH.

T2 sequence (P56450 whole entry): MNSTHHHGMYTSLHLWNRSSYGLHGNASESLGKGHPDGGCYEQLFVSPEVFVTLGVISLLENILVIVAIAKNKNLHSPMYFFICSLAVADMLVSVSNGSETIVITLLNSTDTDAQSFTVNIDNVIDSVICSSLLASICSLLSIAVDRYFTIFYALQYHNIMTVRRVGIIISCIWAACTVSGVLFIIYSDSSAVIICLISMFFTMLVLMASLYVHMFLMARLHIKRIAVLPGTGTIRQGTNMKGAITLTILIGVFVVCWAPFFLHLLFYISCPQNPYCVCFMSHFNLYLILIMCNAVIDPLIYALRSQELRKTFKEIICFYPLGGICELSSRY
T3 sequence (P41149 whole entry): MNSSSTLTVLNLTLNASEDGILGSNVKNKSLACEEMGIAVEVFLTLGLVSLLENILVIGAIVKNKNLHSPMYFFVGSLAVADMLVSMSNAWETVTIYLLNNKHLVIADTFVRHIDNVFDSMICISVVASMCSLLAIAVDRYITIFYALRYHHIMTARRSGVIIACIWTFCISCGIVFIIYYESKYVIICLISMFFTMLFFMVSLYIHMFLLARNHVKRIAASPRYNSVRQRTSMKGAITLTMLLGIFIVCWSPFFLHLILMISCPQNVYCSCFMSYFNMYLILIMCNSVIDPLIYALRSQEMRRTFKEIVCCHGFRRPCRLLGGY
T1 sequence (P33033 whole entry): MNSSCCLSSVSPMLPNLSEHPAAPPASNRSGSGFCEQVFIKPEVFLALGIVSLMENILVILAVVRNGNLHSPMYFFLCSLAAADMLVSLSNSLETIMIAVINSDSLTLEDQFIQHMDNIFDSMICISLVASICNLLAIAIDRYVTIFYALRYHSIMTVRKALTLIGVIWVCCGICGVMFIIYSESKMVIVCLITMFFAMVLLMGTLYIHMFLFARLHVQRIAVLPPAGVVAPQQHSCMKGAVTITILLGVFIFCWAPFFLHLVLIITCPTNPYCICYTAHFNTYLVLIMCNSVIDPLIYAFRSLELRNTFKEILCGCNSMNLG
T4 sequence (Q01727 whole entry): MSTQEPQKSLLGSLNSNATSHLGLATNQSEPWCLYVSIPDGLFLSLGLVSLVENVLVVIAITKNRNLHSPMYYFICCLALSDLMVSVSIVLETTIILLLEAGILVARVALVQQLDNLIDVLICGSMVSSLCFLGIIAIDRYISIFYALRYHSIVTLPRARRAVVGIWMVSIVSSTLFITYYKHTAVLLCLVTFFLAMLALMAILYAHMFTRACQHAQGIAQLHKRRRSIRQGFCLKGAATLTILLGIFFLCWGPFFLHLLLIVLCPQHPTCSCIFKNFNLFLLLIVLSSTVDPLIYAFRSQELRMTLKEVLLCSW

As for `CCCCCCCC(=O)N[C@@H](Cc1c[nH]cn1)C(=O)N[C@H](Cc1ccc(I)cc1)C(=O)N[C@@H](CCCNC(=N)N)C(=O)N[C@@H](Cc1c[nH]c2ccccc12)C(N)=O` [Peptide 6, Octanoyl-His-(pI)DPhe-Arg-Trp-NH2], the “mMC3R relative percentage of stimulation at 100 μM” value (“mMC3R relative percentage” below) in experiment [1] (100000.0) turned out to be 50%−65%. In addition, in experiment [1] (setting [11]), the “mMC3R relative percentage” value is on record as 50%. Moreover, in [2], the antagonist dissociation constant (Kb) stood at 5.01 nM and the “mMC3R pharmacology class printed in Fold Diff column (Ant, SA)” value is recorded as “Ant”. Further, in [3], the “mMC4R relative percentage of stimulation at 100 μM” value (shortened to “mMC4R relative percentage”) worked out at 30%. In [4], the EC50 came out at 5.8 ± 1.7 nM and the “mMC5R pharmacology in words” value is on record as “equipotent”. Moreover, in [5], the Kb is 2.51 nM; the Ki is about 3 nM; the “mMC4R pharmacology class printed in Fold Diff. column (Ant, SA)” value was “Ant”. In experiment [6], the “mMC1R Fold Diff” value was −22 and the concentration for a half-maximal effect (EC50) is 6.3 ± 2.4 nM.
As for `CC(=O)N[C@@H](Cc1cccs1)C(=O)N[C@H](Cc1ccc(I)cc1)C(=O)N[C@@H](CCCNC(=N)N)C(=O)N[C@@H](Cc1c[nH]c2ccccc12)C(N)=O` [Peptide 14, Ac-2Thi-(pI)DPhe-Arg-Trp-NH2] (Ac-[2Thi][dPhe(4-I)]RW-NH2), the “mMC3R relative percentage” value in experiment [1] (setting [11]) is recorded as 40%. Further, in experiment [2], the Kb was determined as 39.8 nM and the “mMC3R pharmacology class printed in Fold Diff column (Ant, SA)” value is on record as “SA Ant”. For the same compound, in experiment [3], the “mMC4R relative percentage” value is given as 55%. In experiment [4], the EC50 was determined as 71 ± 30 nM, the “mMC5R Fold Diff.” value worked out at 14 and the “mMC5R fold less potent than peptide 1” value is 11- to 25 fold. Besides, in experiment [5], the Kb was 3.98 nM and the “mMC4R pharmacology class printed in Fold Diff. column (Ant, SA)” value was “SA Ant”. Moreover, in experiment [6], the “mMC1R pharmacology in words” value is on record as “equipotent” and the EC50 turned out to be 490 ± 150 nM.
For `CC(=O)N[C@@H](Cc1ccccc1)C(=O)N[C@H](Cc1ccc(I)cc1)C(=O)N[C@@H](CCCNC(=N)N)C(=O)N[C@@H](Cc1c[nH]c2ccccc12)C(N)=O` [Peptide 15, Ac-Phe-(pI)DPhe-Arg-Trp-NH2] (Ac-F[dPhe(4-I)]RW-NH2), in experiment [1] (setting [11]), the “mMC3R relative percentage” value came out at 20%. Besides, in experiment [2], the antagonist dissociation constant (Kb) is 126 nM and the “mMC3R pharmacology class printed in Fold Diff column (Ant, SA)” value is recorded as “SA Ant”. The “mMC4R relative percentage” value in [3] was found to be 30%. In experiment [4], it took 140 ± 30 nM to reach a half-maximal effect (EC50), the “mMC5R Fold Diff.” value is 25 and the “mMC5R fold less potent than peptide 1” value is given as 11- to 25 fold. In addition, in [5], the Kb came to 20 nM and the “mMC4R pharmacology class printed in Fold Diff. column (Ant, SA)” value is “SA Ant”. In experiment [6], the “mMC1R Fold Diff” value worked out at 6 and a half-maximal effect (EC50) was put at 820 ± 320 nM.
Consider `CC(=O)N[C@@H](Cc1c[nH]cn1)C(=O)N[C@H](Cc1ccc(I)cc1)C(=O)N[C@@H](CCCNC(=N)N)C(=O)N[C@@H](Cc1ccc(-c2ccccc2)cc1)C(N)=O` [Peptide 29, Ac-His-(pI)DPhe-Arg-Bip-NH2] (Ac-H[dPhe(4-I)]R[Bip]-NH2), for which the “mMC3R relative percentage” value in experiment [1] (setting [11]) is 35%. Further, in experiment [2], the antagonist dissociation constant (Kb) amounted to 200 nM and the “mMC3R pharmacology class printed in Fold Diff column (Ant, SA)” value is “SA Ant”. Further, the “mMC4R relative percentage” value in experiment [3] is recorded as 30%. Besides, in experiment [4], a half-maximal response (EC50) required 12.4 ± 2 nM and the “mMC5R pharmacology in words” value is given as “equipotent agonists; also recorded: very potent nanomolar agonist activity”. Besides, in experiment [5], the antagonist dissociation constant (Kb) is 39.8 nM and the “mMC4R pharmacology class printed in Fold Diff. column (Ant, SA)” value was “SA Ant”. In experiment [6], this compound yielded a half-maximal effective concentration (EC50) of 47 ± 9 nM.
Consider `CC(=O)N[C@@H](Cc1c[nH]cn1)C(=O)N[C@H](Cc1ccc(I)cc1)C(=O)N[C@@H](CCCNC(=N)N)C(=O)N[C@@H](Cc1csc2ccccc12)C(N)=O` [Peptide 30, Ac-His-(pI)DPhe-Arg-3Bal-NH2] (Ac-H[dPhe(4-I)]R[Bta]-NH2), for which the “mMC3R relative percentage” value in [1] (setting [11]) worked out at 25%. Moreover, in [2], the Kb was 39.8 nM and the “mMC3R pharmacology class printed in Fold Diff column (Ant, SA)” value is “SA Ant”. For the same compound, the “mMC4R relative percentage” value in experiment [3] is reported as 50%. In experiment [4], it took 3.2 ± 0.7 nM to reach a half-maximal effect (EC50) and the “mMC5R pharmacology in words” value was “equipotent agonists; also recorded: very potent nanomolar agonist activity”. Moreover, in experiment [5], the antagonist equilibrium constant (Kb) came out at 10 nM and the “mMC4R pharmacology class printed in Fold Diff. column (Ant, SA)” value is “SA Ant”. In [6], this compound gave a 50% effective concentration (EC50) of 45 ± 14 nM.
Regarding `CC(=O)N[C@@H](Cc1c[nH]cn1)C(=O)N[C@H](Cc1ccc(-c2ccccc2)cc1)C(=O)N[C@@H](CCCNC(=N)N)C(=O)N[C@@H](Cc1csc2ccccc12)C(N)=O` [Peptide 34, Ac-His-DBip-Arg-3Bal-NH2] (Ac-H[dBip]R[Bta]-NH2), in experiment [1] (setting [11]), the “mMC3R relative percentage” value was found to be 55%. In experiment [2], the antagonist dissociation constant (Kb) is 316 nM and the “mMC3R pharmacology class printed in Fold Diff column (Ant, SA)” value is “SA Ant”. In addition, the “mMC4R relative percentage” value in [3] is 65%. Besides, in [4], the EC50 is 6.9 ± 0.2 nM and the “mMC5R pharmacology in words” value is listed as “equipotent agonists”. Besides, in experiment [5], the antagonist dissociation constant (Kb) came out at 20 nM and the “mMC4R pharmacology class printed in Fold Diff. column (Ant, SA)” value is given as “SA Ant”. In experiment [6], the “mMC1R pharmacology in words” value is “more potent”; the “mMC1R Fold Diff” value was −16; the concentration giving a half-maximal response (EC50) is 9 nM and 8.9 nM. Besides, in experiment [6] (more potent agonist than 1), the “mMC1R fold difference in EC50, more potent than reference peptide 1” value was 16 fold.
Take `CC(=O)N[C@@H](Cc1c[nH]cn1)C(=O)N[C@H](Cc1ccc(-c2ccccc2)cc1)C(=O)N[C@@H](CCCNC(=N)N)C(=O)N[C@H](Cc1ccc(-c2ccccc2)cc1)C(N)=O` [Peptide 35, Ac-His-DBip-Arg-DBip-NH2] (Ac-H[dBip]R[dBip]-NH2): in experiment [2], the Kb was found to be 200 nM and the “mMC3R pharmacology class printed in Fold Diff column (Ant, SA)” value was “Ant”. In [3], the “mMC4R relative percentage” value is listed as 23%. In experiment [4], a half-maximal effect (EC50) was put at 42 ± 7 nM, the “mMC5R pharmacology in words” value was “less potent” and the “mMC5R Fold Diff.” value amounted to 8. For the same compound, in experiment [5], the Kb was 158 nM and the “mMC4R pharmacology class printed in Fold Diff. column (Ant, SA)” value was “SA Ant”. For the same compound, in experiment [6], the “mMC1R pharmacology in words” value was “within 3-fold experimental error” and the EC50 was 90 ± 20 nM.
With `CC(=O)N[C@@H](Cc1cccs1)C(=O)N[C@H](Cc1ccccc1)C(=O)N[C@@H](CCCNC(=N)N)C(=O)N[C@@H](Cc1c[nH]c2ccccc12)C(N)=O` [Peptide 52, Ac-2Thi-DPhe-Arg-Trp-NH2] (Ac-[2Thi][dF]RW-NH2), the concentration for a half-maximal effect (EC50) in [7] (ref [33]) was 200 ± 40 nM; in experiment [8] (ref [33]) it was 41 ± 13 nM; in [9] (ref [33]), 3000 ± 300 nM. Besides, the “selectivity between the mMC1R and the mMC5R” value in [4] (monosubstituted reference peptides, from literature EC50 values of Table 3) is recorded as at most 5 fold.
In the case of Ac-DHis-DPhe-Arg-Trp-NH2 [Peptide 53], the values for the EC50 in experiment [8] (ref [33]) and in [9] (ref [33]) were 140 ± 20 nM and 6200 ± 2500 nM, respectively.
Take Ac-H[dF]R[1Nal]-NH2 [Peptide 38]: the EC50 was 730 ± 320 nM in experiment [7] (ref [31]), 33 ± 4 nM in [8] (ref [31]), 260 ± 30 nM in experiment [10] and 3500 ± 1300 nM in experiment [9] (ref [31]).
On to Ac-H[dF]R[Bip]-NH2 [Peptide 42], for which the EC50 was 52 ± 10 nM in [7] (ref [31]), 100 ± 20 nM in experiment [8] (ref [31]), 2700 ± 500 nM in experiment [10] and 13000 ± 800 nM in experiment [9] (ref [31]).
Take Ac-H[dF]R[Tic]-NH2 [Peptide 41]: the half-maximal effective concentration (EC50) in experiment [7] (ref [31]) is 43 ± 13 nM; in [8] (ref [31]) it was 700 ± 100 nM; in experiment [10], 8500 ± 900 nM; in experiment [9] (ref [31]) it was 23000 ± 2000 nM.
As to Ac-H[dF]R[d2Nal]-NH2 [Peptide 40], the concentration for a half-maximal effect (EC50) in experiment [7] (ref [31]) was 130 ± 30 nM; in experiment [8] (ref [31]), 12.1 ± 3.3 nM; in experiment [10] it was 46.2 ± 7.9 nM; in experiment [9] (ref [31]) it was 1600 ± 600 nM.
As for “Ac-His-(pI)DPhe-Arg-Trp-NH2 [Peptide 45]”, in [8] (ref [32]), the EC50 is 1.6 ± 0.4 nM.
“Octanoyl-His-DPhe-Arg-Trp-NH2 [Peptide 54]”: the 50% effective concentration (EC50) in [8] (ref [34]) was 0.79 ± 0.25 nM; in experiment [9] (ref [34]), 4 ± 0.7 nM.
